Source: patent US7892769B2, “Processing of EphA4 polypeptide by γ-secretase activity” (Eisai R&D Management Co., Ltd., priority 2007, dated 2011)

Columns and labels:
γ-secretase [1] = target: T1, γ-secretase (Homo sapiens, UniProt P49768); experiment: Analysis of EphA4 processing in EphA4-HA-transfected 293/EBNA-1 cell strain (Western blotting, anti-HA antibody); format: cell-based; details: 50 nM Compound E, one day; cells expressing rat EphA4 with C-terminal HA tag; vs sample untreated with Compound E; FIG. 1
T1 construct: host or cells: 293/EBNA-1 (HEK293) cells; only the substrate EphA4-HA was transfected
Description: Whether or not EphA4 is a substrate for γ-secretase was evaluated using HEK293 cells expressing EphA4 with an HA tag added to its C-terminus, in the presence of a γ-secretase inhibitor. As the γ-secretase inhibitor, (2S)-2-{[(3,5-difluorophenyl)acetyl]amino}-N-[(3S)-1-methyl-2-oxo-5-phenyl-2,3-dihydro-1H-1,4-benzodiazepin-3-yl]propanamide (hereinafter, sometimes referred to as “Compound E”) (Alexis Biochemicals) was used.
293/EBNA-1 cell strain (Invitrogen) was cultured in 10% FEB (Hyclone)/DMEM (Invitrogen) under 5% CO2 at 37° C., followed by transfection thereinto of a gene encoding rat EphA4 with an HA tag added to its C-terminus with Lipofectamine 2000 (Invitrogen). After one day culture under the same conditions, 50 nM Compound E (Alexis Biochemicals) was added to the medium. Cells were cultured for another day under the same conditions. Then, the transfected HEK293 cells were collected with PBS (Sigma) and sonicated with a sonicator (Taitec VP-5S) to disrupt cells. Then, the quantity of protein was determined with Protein Assay Kit (BioRad). […]
First, the substrate for γ-secretase is cut off its extracellular domain by other protease. […] Since reactions proceed very quickly from the first cleavage to the final degradation by proteasome, the substrate is […] when detected by Western blotting.

γ-secretase [2] = target: T2, γ-secretase (Rattus norvegicus, UniProt P97887); experiment: Analysis of EphA4 processing in primary culture of rat hippocampal neurons (Western blotting, anti-EphA4 antibody); format: cell-based; details: Compound E final concentration 50 nM, one week; endogenous EphA4; vs sample untreated with Compound E; FIG. 2
T2 construct: endogenous in cells; host or cells: primary culture of hippocampal neurons from embryonic day 18 SD rats (Charles River)
Description: Whether or not EphA4 is a substrate for γ-secretase was evaluated using a primary culture of rat hippocampal neurons in the presence of a γ-secretase inhibitor. As the γ-secretase inhibitor, (2S)-2-{[(3,5-difluorophenyl)acetyl]amino}-N-[(3S)-1-methyl-2-oxo-5-phenyl-2,3-dihydro-1H-1,4-benzodiazepin-3-yl]propanamide (Compound E) (Alexis Biochemicals) was used.
The hippocampus was isolated from embryonic day 18 SD rats (Charles River) and subjected to culture. Specifically, embryos were removed aseptically from pregnant rats under etherization. The brain was removed from each embryo and dipped in 20% FBS (Hyclone)/HBSS (Sigma). The hippocampus was collected from the thus obtained brain under a stereomicroscope. The collected hippocampus was treated in an enzyme solution containing 0.25% trypsin (Invitrogen) and 0.5 mg/ml DNase (Sigma) at 35° C. for 10 minutes to disperse cells. This enzyme reaction was terminated by adding 20% FBS (Hyclone)/HBSS (Sigma). Then, 2 ml of HBSS (Sigma) was added to the resultant cells. The HBSS-added cell mass was re-dispersed by gentle pipetting. The resultant neuron suspension was diluted with a medium and plated in 10 cm dishes at an initial cell density of 1.5×10^6 cells/dish. […] Then, cells were collected with PBS and subjected to quantitative determination of protein. […]

## C[C@H](NC(=O)Cc1cc(F)cc(F)c1)C(=O)N[C@H]1N=C(c2ccccc2)c2ccccc2N(C)C1=O [Compound E, (2S)-2-{[(3,5-difluorophenyl)acetyl]amino}-N-[(3S)-1-methyl-2-oxo-5-phenyl-2,3-dihydro-1H-1,4-benzodiazepin-3-yl]propanamide]
γ-secretase [1]
  accumulation of EphA4 C-terminal fragment (CTF) band: a band around 50 kDa (CTF) was accumulated specifically
γ-secretase [2]
  accumulation of EphA4 C-terminal fragment (CTF) band: a band around 50 kDa (CTF) was accumulated specifically
